Data set [1] deals with T1, 15-hLO-1 (Homo sapiens, UniProt P16050).
T1 sequence (P16050 1-662): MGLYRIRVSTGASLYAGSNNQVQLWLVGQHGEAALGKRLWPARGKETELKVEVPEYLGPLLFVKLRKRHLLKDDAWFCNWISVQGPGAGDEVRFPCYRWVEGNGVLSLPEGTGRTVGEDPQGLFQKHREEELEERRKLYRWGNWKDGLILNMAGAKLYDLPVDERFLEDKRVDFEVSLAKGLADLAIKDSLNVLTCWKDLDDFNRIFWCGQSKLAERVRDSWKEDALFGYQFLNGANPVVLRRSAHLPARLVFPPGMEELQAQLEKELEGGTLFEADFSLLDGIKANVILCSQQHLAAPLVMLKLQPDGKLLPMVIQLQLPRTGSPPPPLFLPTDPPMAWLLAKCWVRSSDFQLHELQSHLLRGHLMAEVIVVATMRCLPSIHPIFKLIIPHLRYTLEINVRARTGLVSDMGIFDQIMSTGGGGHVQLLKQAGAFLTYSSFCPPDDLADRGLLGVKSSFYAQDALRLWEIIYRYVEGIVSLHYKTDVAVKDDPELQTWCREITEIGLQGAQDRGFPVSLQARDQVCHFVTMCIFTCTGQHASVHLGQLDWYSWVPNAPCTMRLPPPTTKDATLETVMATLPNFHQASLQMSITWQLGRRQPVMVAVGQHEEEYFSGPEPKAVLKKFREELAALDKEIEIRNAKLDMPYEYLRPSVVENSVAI
Conditions: cited from earlier work.

For data set [2], the target named is T2, Human reticulocyte 15-lipoxygenase-1 (15-hLO-1) (Homo sapiens, UniProt P16050).
T2 sequence (P16050 1-662): T1 sequence (P16050 1-662)
Nature of the data set: Lipoxygenase UV-Vis assay. As to conditions: for fold loss in activity against 15-hLO-1 relative to lead 5: compared with compound 5 (19 nM).

The nature of data set [3]: Solubility as noted during biochemical characterization. It is filed as physicochemical. As to conditions: noted where Ki^app could not be obtained accurately.
Data set [4] deals with T1, 15-hLO-1. Nature of the data set: Reversibility of inhibition. The data set is classed as biochemical. As to conditions: 50 μM inhibitor, 10 min incubation, then 2 h dialysis.
Data set [5] deals with T1, 15-hLO-1. Nature of the data set: Steady-state inhibition kinetics. As to conditions: replot of 1/Vmax vs inhibitor; AA substrate, 0.01% Triton X-100.

The structures appear in SMILES notation. pIC50: −log10 of the molar value. Entries after “also recorded” stand apart in the source; their conditions may differ.

As for `COc1ccc(-c2oc3cc(OC)c(OC)c(OC)c3c(=O)c2OC)cc1OC` [hexamethoxyflavone], the pIC50 (usually the IC50 on a negative log10 scale, so that one unit is a factor of ten) in data set [1] was 4.30. As to `O=C(OCc1ccc(CSc2nnc(-c3cccc4ccccc34)o2)cc1)c1ccc(F)cc1` [Analogue 62], the pIC50 in data set [2] was less than 4.00. With `O=C(CCC#CCSc1nnc(-c2cccc3ccccc23)o1)c1ccccc1` [Analogue 67], the “solubility (in words)” value in data set [3] is listed as “reduced solubility; also recorded: low solubility”. With `O=C(OCC#CCSc1nnc(-c2cccc3ccccc23)o1)c1ccccc1F` [Analogue 25], in data set [4], the reversibility of inhibition entry was “reversible”.

Turning to `O=C(NCC#CCSc1nnc(-c2cccc3ccccc23)o1)c1cccs1` [Analogue 56], in data set [2], the pIC50 is 5.70 and the “fold loss in activity against 15-hLO-1 relative to lead 5” value is on record as 100 fold.

`O=C(OCC#CCSc1nnc(-c2cc3ccccc3cc2O)o1)c1ccc(F)cc1` [Analogue 53]: the “solubility (in words)” value in data set [3] was “low solubility”. Turning to `O=C(OCC#CCNc1nnc(-c2cccc3ccccc23)o1)c1cccs1` [Analogue 60], in data set [2], the pIC50 was 5.89.

As for `O=C(OCC#CCSc1nnc(-c2cccc3ccccc23)s1)c1cccs1` [Analogue 58], the “solubility (in words)” value in data set [3] is given as “noticeably less soluble; also recorded: low solubility”. Regarding `O=C(OCC#CCSc1nnc(-c2cccc3ccccc23)o1)c1c[nH]cn1` [Analogue 16], the “Ki’ (dissociation from the secondary site)” value in data set [5] was 8100 ± 900 nM. Also, the “fold loss in activity against 15-hLO-1 relative to lead 5” value in data set [2] was “approximately 70 fold”. As to `Fc1ccc(COCC#CCSc2nnc(-c3cccc4ccccc34)o2)cc1` [Analogue 66], the “activity against 15-hLO-1 (in words)” value in data set [2] is given as “complete loss in activity”. For `O=C(OCC#CCSc1nnc(-c2ccc(F)cc2)o1)c1ccc(F)cc1` [Analogue 47], the pIC50 in data set [2] is greater than 8.00.

The values are drawn from paper PMC2966298 (Journal of medicinal chemistry, 2010).
